According to patent US20120015938A1, “1,4-BENZODIAZEPIN-2-ON DERIVATIVES” (MSD K.K., priority 2009, published 2012):

The compounds below were run against T1, Human DGAT1 (Homo sapiens, UniProt O75907) (assay: DGAT1 Inhibitory Activity Test). Conditions: DGAT1-expressed yeast membrane fraction, [14C]-oleoyl-CoA, room temperature 30 minutes.
T1 construct: made in house; host or cells: Pichia pastoris (printed 'Pichia pastris'), vector pPICZA; membrane fraction
T1 sequence (O75907 1-488): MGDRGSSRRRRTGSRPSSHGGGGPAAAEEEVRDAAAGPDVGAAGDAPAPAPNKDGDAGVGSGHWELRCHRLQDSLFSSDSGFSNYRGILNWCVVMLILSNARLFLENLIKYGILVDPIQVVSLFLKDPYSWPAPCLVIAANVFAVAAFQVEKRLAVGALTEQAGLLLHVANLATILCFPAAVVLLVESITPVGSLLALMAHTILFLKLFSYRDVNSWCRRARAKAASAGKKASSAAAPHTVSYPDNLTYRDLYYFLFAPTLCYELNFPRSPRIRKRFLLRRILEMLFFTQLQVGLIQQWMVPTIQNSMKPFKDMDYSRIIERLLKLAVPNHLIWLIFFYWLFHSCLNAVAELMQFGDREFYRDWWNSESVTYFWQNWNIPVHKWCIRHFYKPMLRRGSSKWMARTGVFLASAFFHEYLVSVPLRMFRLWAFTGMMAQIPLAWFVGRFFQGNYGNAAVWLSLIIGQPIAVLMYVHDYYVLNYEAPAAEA
Type: biochemical
Description: Cloning of Human DGAT1 Gene and Expression in Yeast
Human DGAT1 genes were amplified by PCR using primers described below from human cDNA library (Clontech).
The amplified human DGAT1 genes were introduced into a yeast expression vector pPICZA (Invitrogen). The resultant expression plasmid was introduced into an yeast (Pichia pastris) by electroporation to produce a recombinant yeast. The recombination yeast was cultured in the presence of 0.5% methanol for 72 hours, and the cells were crushed using glass beads in 10 mM Tris pH 7.5, 250 mM sucrose and 1 mM EDTA, followed by adjusting the membrane fraction by centrifugation to use the adjusted membrane fraction as an enzyme source.
To the reaction liquid having the following composition: 100 mM Tris pH 7.5, 100 mM MgCl2, 100 mM sucrose, 40 μM dioelin, 15 μM [^14C]-oleoyl-CoA, 0.25 μg of test substance, DGAT1-expressed yeast membrane fraction, was added, and the mixture having a volume of 100 μl was incubated at room temperature for 30 minutes. To the reaction liquid, 100 μl of 2-propanol/heptan/H2O (80:20:2) was added, the mixture was stirred well, followed by adding 200 μl of heptane and further stirring the mixture. After centrifugation, the heptane layer was collected, ethanol/0.1N NaOH/H2O (50:5:45) was added, the mixture was thus stirred, followed by re-centrifuging the mixture and collecting the heptane layer. After exsiccation of the resultant heptane layer, 100 μl of Microscint 0 (PerkinElmer) was added, and the radioactivity was measured with a liquid scintillation counter. The inhibitory activity was calculated from the following formula:
Inhibition rate=100−(radioactivity in case of addition of test compound−background)/(radioactivity in case of addition of no test compound−background)×100 wherein the background means the radioactivity in case of addition of no membrane fraction.

SMILES | IC50
CN1C(=O)C(NC(=O)C(C)(C)NC(=O)c2ccccc2)N=C(Cc2ccc(OC(F)(F)F)cc2)c2cc(F)ccc21 (single isomer, unassigned) [Example 2 Enantiomer B, N-[2-({7-fluoro-1-methyl-2-oxo-5-[4-(trifluoromethoxy)benzyl]-2,3-dihydro-1H-1,4-benzodiazepin 3-yl}amino)-1,1-dimethyl-2-oxoethyl]benzamide] | 164 nM
CN1C(=O)C(NC(=O)C(C)(C)NC(=O)c2ccccc2)N=C(Cc2ccc(OC(F)(F)F)cc2)c2ccccc21 (single isomer, unassigned) [Example 4 Enantiomer B, N-[1,1-dimethyl-2-({1-methyl-2-oxo-5-[4-(trifluoromethoxy)benzyl]-2,3-dihydro-1H-1,4-benzodiazepin-3-yl}amino)-2-oxoethyl]benzamide] | 127 nM
CN1C(=O)C(NC(=O)C(C)(C)NC(=O)c2ccc(F)cc2)N=C(Cc2ccc(OC(F)(F)F)cc2)c2ccccc21 (single isomer, unassigned) [Example 3 Enantiomer B, N-[1,1-dimethyl-2-({1-methyl-2-oxo-5-[4-(trifluoromethoxy)benzyl]-2,3-dihydro-1H-1,4-benzodiazepin-3-yl}amino)-2-oxoethyl]-4-fluorobenzamide] | 125 nM
CN1C(=O)C(NC(=O)C(C)(C)NC(=O)c2ccccc2)N=C(Cc2ccc(OC(F)(F)F)cc2)c2cc(F)ccc21 (single isomer, unassigned) [Example 2 Enantiomer A, N-[2-({7-fluoro-1-methyl-2-oxo-5-[4-(trifluoromethoxy)benzyl]-2,3-dihydro-1H-1,4-benzodiazepin 3-yl}amino)-1,1-dimethyl-2-oxoethyl]benzamide] | 569 nM
CN1C(=O)C(NC(=O)C(C)(C)NC(=O)c2ccc(F)cc2)N=C(Cc2ccc(OC(F)(F)F)cc2)c2ccccc21 (single isomer, unassigned) [Example 3 Enantiomer A, N-[1,1-dimethyl-2-({1-methyl-2-oxo-5-[4-(trifluoromethoxy)benzyl]-2,3-dihydro-1H-1,4-benzodiazepin-3-yl}amino)-2-oxoethyl]-4-fluorobenzamide] | 181 nM
CN1C(=O)C(NC(=O)C(C)(C)NC(=O)c2ccc(F)cc2)N=C(Cc2ccc(OC(F)(F)F)cc2)c2cc(F)ccc21 (single isomer, unassigned) [Example 1 Enantiomer A, 4-fluoro-N-[2-({7-fluoro-1-methyl-2-oxo-5-[4-(trifluoromethoxy)benzyl]-2,3-dihydro-1H-1,4-benzodiazepin-3-yl}amino)-1,1-dimethyl-2-oxoethyl]benzamide] | 483 nM
CN1C(=O)C(NC(=O)C(C)(C)NC(=O)c2ccccc2)N=C(Cc2ccc(OC(F)(F)F)cc2)c2ccccc21 (single isomer, unassigned) [Example 4 Enantiomer A, N-[1,1-dimethyl-2-({1-methyl-2-oxo-5-[4-(trifluoromethoxy)benzyl]-2,3-dihydro-1H-1,4-benzodiazepin-3-yl}amino)-2-oxoethyl]benzamide] | 308 nM
CN1C(=O)C(NC(=O)C(C)(C)NC(=O)c2ccc(F)cc2)N=C(Cc2ccc(OC(F)(F)F)cc2)c2cc(F)ccc21 (single isomer, unassigned) [Example 1 Enantiomer B, 4-fluoro-N-[2-({7-fluoro-1-methyl-2-oxo-5-[4-(trifluoromethoxy)benzyl]-2,3-dihydro-1H-1,4-benzodiazepin-3-yl}amino)-1,1-dimethyl-2-oxoethyl]benzamide] | 133 nM
